Measured values: patent publication US6737383B1, “Herbicidal oxadiazolidines” (priority 1999, dated 2004)

What was measured:
bedstraw = assay: Test B pre/postemergence bedstraw; type: in vivo, Galium aparine
In short: (§1)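 Herbicidal effect was estimated by eye on a ten-point control scale after plants spent twelve to sixteen days in a greenhouse following soil or foliar treatment. Foliar sprays targeted plants at one to four leaves; all doses were formulated in a non-phytotoxic solvent with surfactant.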

blackgrass = assay: Test B pre/postemergence blackgrass; type: in vivo, Alopecurus myosuroides
In short: as §1

surinam grass = assay: Test B pre/postemergence surinam grass; type: in vivo, Brachiaria decumbens
In short: as §1

cocklebur = assay: Test B pre/postemergence cocklebur; type: in vivo, Xanthium strumarium
In short: as §1

corn = assay: Test B pre/postemergence corn; type: in vivo, Zea mays
In short: as §1

crabgrass = assay: Test B pre/postemergence crabgrass; type: in vivo, Digitaria sanguinalis
In short: as §1

giant foxtail = assay: Test B pre/postemergence giant foxtail; type: in vivo, Setaria faberii
In short: as §1

morningglory = assay: Test B pre/postemergence morningglory; type: in vivo, Ipomoea hederacea
In short: as §1

pigweed = assay: Test B pre/postemergence pigweed; type: in vivo, Amaranthus retroflexus
In short: as §1

rape = assay: Test B pre/postemergence rape; type: in vivo, Brassica napus
In short: as §1

soybean = assay: Test B pre/postemergence soybean; type: in vivo, Glycine max; conditions: Preemergence
In short: as §1

sugar beet = assay: Test B pre/postemergence sugar beet; type: in vivo, Beta vulgaris; conditions: Preemergence
In short: as §1

velvetleaf = assay: Test B pre/postemergence velvetleaf; type: in vivo, Abutilon theophrasti; conditions: Preemergence
In short: as §1

wheat = assay: Test B pre/postemergence wheat; type: in vivo, Triticum aestivum; conditions: Preemergence
In short: as §1

wild oat = assay: Test B pre/postemergence wild oat; type: in vivo, Avena fatua; conditions: Preemergence
In short: as §1

purple nutsedge = assay: Test B pre/postemergence purple nutsedge; type: in vivo, Cyperus rotundus; conditions: Postemergence
In short: as §1

rice = assay: Test B flood test rice; type: in vivo, Oryza sativa
In short: (§2)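 Read-out is a visual response score from 0 (no effect) to 10 (complete control), assigned by comparison with untreated controls. Treatment was applied at the 2-leaf stage, and plants stayed in the greenhouse for twelve to sixteen days before scoring.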

smallflower flatsedge = assay: Test B flood test smallflower flatsedge; type: in vivo, Cyperus difformis
In short: as §2

duck salad = assay: Test B flood test duck salad; type: in vivo, Heteranthera limosa
In short: as §2

bamyardgrass = assay: Test B flood test barnyardgrass; type: in vivo, Echinochloa crus-galli
In short: as §2

[1] = Preemergence, Rate 31 g/ha, visual rating, scale 0 to 10 (0 no effect, 10 complete control)
[2] = Preemergence, Rate 62 g/ha, scale of 0 to 10 where 0 is no effect and 10 is complete control
[3] = Preemergence, Rate 250 g/ha, scale of 0 to 10 where 0 is no effect and 10 is complete control
[4] = Rate 31 g/ha, Postemergence, scale 0 to 10
[5] = Rate 62 g/ha, Postemergence, scale of 0 to 10 where 0 is no effect and 10 is complete control
[6] = Rate 125 g/ha, Postemergence, scale 0 to 10
[7] = Rate 125 g/ha, Preemergence, scale of 0 to 10 where 0 is no effect and 10 is complete control
[8] = Rate 31 g/ha, visual rating, scale 0 to 10 (0 no effect, 10 complete control)
[9] = Rate 62 g/ha, scale of 0 to 10 where 0 is no effect and 10 is complete control
[10] = Rate 250 g/ha, scale of 0 to 10 where 0 is no effect and 10 is complete control
[11] = Rate 125 g/ha, scale of 0 to 10 where 0 is no effect and 10 is complete control
[12] = Rate 62 g/ha, headed Pre-emergence (flood test species), scale 0 to 10 (0 no effect, 10 complete control)
[13] = Rate 125 g/ha, Pre-emergence, flood test species, scale 0 to 10 where 0 is no effect and 10 is complete control
[14] = Rate 250 g/ha, Pre-emergence, flood-test species, scale 0 to 10, 0 is no effect, 10 is complete control
[15] = Rate 500 g/ha, Pre-emergence, flood test species, scale 0 to 10 (0 no effect, 10 complete control)

CCC(=O)Cn1c(=O)on(C(=O)N(c2ccc(F)cc2)C(C)C)c1=O [Compound 252]
4: Blackgrass plant response rating (blackgrass; [3]) | Crabgrass plant response rating (crabgrass; [3]) | Plant response rating (0 to 10; 0 is no effect, 10 is complete control), Giant foxtail (giant foxtail; Rate 250 g/ha, Postemergence)
3: Giant foxtail plant response rating (giant foxtail; [1]) | Giant foxtail plant response rating (giant foxtail; [2]) | Plant response rating (0 to 10; 0 is no effect, 10 is complete control), Morningglory (morningglory; Rate 250 g/ha, Postemergence) | Rape plant response rating (rape; [3]) | Sugarbeets plant response rating (sugar beet; [10]) | Sugarbeets plant response rating (sugar beet; [11]) | Wild oats plant response rating (wild oat; [10])
10: Giant foxtail plant response rating (giant foxtail; [3])
5: Plant response rating (0 to 10; 0 is no effect, 10 is complete control), Blackgrass (blackgrass; Rate 250 g/ha, Postemergence)
0: Bedstraw plant response rating (bedstraw; [1]) | Bedstraw plant response rating (bedstraw; [2]) | Bedstraw plant response rating (bedstraw; [3]) | Bedstraw plant response rating (bedstraw; [4]) | Bedstraw plant response rating (bedstraw; [5]) | Bedstraw plant response rating (bedstraw; [6]) | Bedstraw plant response rating (bedstraw; [7]) | Plant response rating (0 to 10; 0 is no effect, 10 is complete control), Bedstraw (bedstraw; Rate 250 g/ha, Postemergence) | Blackgrass plant response rating (blackgrass; [1]) | Blackgrass plant response rating (blackgrass; [2]) | Blackgrass plant response rating (blackgrass; [4]) | Blackgrass plant response rating (blackgrass; [5]) | B. signalgrass plant response rating (surinam grass; [1]) | B. signalgrass plant response rating (surinam grass; [2]) | B. signalgrass plant response rating (surinam grass; [3]) | B. signalgrass plant response rating (surinam grass; [4]) | B. signalgrass plant response rating (surinam grass; [5]) | B. signalgrass plant response rating (surinam grass; Rate 125 g/ha, Postemergence, scale 0 (no effect) to 10 (complete control)) | B. signalgrass plant response rating (surinam grass; [7]) | Plant response rating (0 to 10; 0 is no effect, 10 is complete control), B. signalgrass (surinam grass; Rate 250 g/ha, Postemergence) | Cocklebur plant response rating (cocklebur; [1]) | Cocklebur plant response rating (cocklebur; [2]) | Cocklebur plant response rating (cocklebur; [4]) | Cocklebur plant response rating (cocklebur; [5]) | Cocklebur plant response rating (cocklebur; [6]) | Cocklebur plant response rating (cocklebur; [7]) | Plant response rating (0 to 10; 0 is no effect, 10 is complete control), Cocklebur (cocklebur; Rate 250 g/ha, Postemergence) | Corn plant response rating (corn; [1]) | Corn plant response rating (corn; [2]) | Corn plant response rating (corn; [3]) | Corn plant response rating (corn; [4]) | Corn plant response rating (corn; [5]) | Corn plant response rating (corn; [6]) | Corn plant response rating (corn; [7]) | Plant response rating (0 to 10; 0 is no effect, 10 is complete control), Corn (corn; Rate 250 g/ha, Postemergence) | Crabgrass plant response rating (crabgrass; [1]) | Crabgrass plant response rating (crabgrass; [2]) | Crabgrass plant response rating (crabgrass; [4]) | Giant foxtail plant response rating (giant foxtail; [4]) | Morningglory plant response rating (morningglory; [1]) | Morningglory plant response rating (morningglory; [2]) | Morningglory plant response rating (morningglory; [3]) | Morningglory plant response rating (morningglory; [7]) | Redroot pigweed plant response rating (pigweed; [1]) | Redroot pigweed plant response rating (pigweed; [2]) | Redroot pigweed plant response rating (pigweed; [3]) | Redroot pigweed plant response rating (pigweed; [4]) | Redroot pigweed plant response rating (pigweed; [7]) | Plant response rating (0 to 10; 0 is no effect, 10 is complete control), Redroot pigweed (pigweed; Rate 250 g/ha, Postemergence) | Rape plant response rating (rape; [1]) | Rape plant response rating (rape; [2]) | Rape plant response rating (rape; [4]) | Rape plant response rating (rape; [7]) | Plant response rating (0 to 10; 0 is no effect, 10 is complete control), Rape (rape; Rate 250 g/ha, Postemergence) | Soybean plant response rating (soybean; [8]) | Soybean plant response rating (soybean; [9]) | Soybean plant response rating (soybean; [10]) | Soybean plant response rating (soybean; [11]) | Sugarbeets plant response rating (sugar beet; [8]) | Sugarbeets plant response rating (sugar beet; [9]) | Velvetleaf plant response rating (velvetleaf; [8]) | Velvetleaf plant response rating (velvetleaf; [9]) | Velvetleaf plant response rating (velvetleaf; [11]) | Wheat plant response rating (wheat; [8]) | Wheat plant response rating (wheat; [9]) | Wheat plant response rating (wheat; [11]) | Wild oats plant response rating (wild oat; [8]) | Wild oats plant response rating (wild oat; [9]) | Wild oats plant response rating (wild oat; [11]) | Nutsedge plant response rating (purple nutsedge; Rate 31 g/ha, scale 0 to 10) | Plant response rating (0 to 10; 0 is no effect, 10 is complete control), Nutsedge (purple nutsedge; Rate 250 g/ha) | Rice plant response rating (rice; [12]) | Rice plant response rating (rice; [13]) | Rice plant response rating (rice; [14]) | Rice plant response rating (rice; [15]) | S. Flatsedge plant response rating (smallflower flatsedge; [12]) | S. Flatsedge plant response rating (smallflower flatsedge; [13]) | S. Flatsedge plant response rating (smallflower flatsedge; [14]) | S. Flatsedge plant response rating (smallflower flatsedge; [15]) | Ducksalad plant response rating (duck salad; [12]) | Ducksalad plant response rating (duck salad; [13]) | Ducksalad plant response rating (duck salad; [14]) | Ducksalad plant response rating (duck salad; [15]) | Barnyardgrass plant response rating (bamyardgrass; [12]) | Barnyardgrass plant response rating (bamyardgrass; [13]) | Barnyardgrass plant response rating (bamyardgrass; [14]) | Barnyardgrass plant response rating (bamyardgrass; [15])
6: Plant response rating (0 to 10; 0 is no effect, 10 is complete control), Crabgrass (crabgrass; Rate 250 g/ha, Postemergence)
2: Blackgrass plant response rating (blackgrass; [6]) | Blackgrass plant response rating (blackgrass; [7]) | Crabgrass plant response rating (crabgrass; [7]) | Morningglory plant response rating (morningglory; [4]) | Velvetleaf plant response rating (velvetleaf; [10]) | Wheat plant response rating (wheat; [10])
9: Giant foxtail plant response rating (giant foxtail; [7])
